Reference: US20250361261A1, “CYCLOPENTYL ADENOSINE DERIVATIVE AND PHARMACEUTICAL USE THEREOF” (priority 2022, published 2025)

System: CFA inflammatory pain model
Assay: CFA inflammatory pain model, mechanical pain threshold by VonFrey electronic aesthesiometer
Type: in vivo, Sprague-Dawley (SD) rats
From the text: Experimental animals: SPF male Sprague-Dawley (SD) rats, weighing 180±30 g, obtained from Shanghai Sippe-Bk Lab Animal Co., Ltd. Experimental samples: Compounds 1, 2, and 3 and CCPA were used to prepare the corresponding pharmaceutical compositions according to the following formulation amounts and method. [table] Preparation method: Formulation amounts of compounds 1, 2, and 3 and CCPA were separately weighed out, added to a proper amount of tert-butanol/water mixed solution, and dissolved by stirring. Then formulation amounts of dimyristoylphosphatidylcholine (DMPC) and cholesterol were added and dissolved by stirring. The above solutions were made up to volume (25-40 mL), added to vials, and lyophilized in a lyophilizer for later use. When used, the lyophilizates were dissolved in normal saline to 1 mg/mL, 2 mg/mL, 4 mg/mL, and 8 mg/mL. SD rats, 6 to 8-week-old and weighing 150 g-200 g, were divided into a control group, a model control group, and an administration group. A CFA inflammatory pain model was obtained 24 h after 100 μL of complete Freund's adjuvant was injected into the soles of the left feet of the rats in the model control group and the administration group. The injection was performed at left Zusanli, and the injection volume was 100 μL. [table] Note: For the control group, 100 μL of normal saline was injected into the soles of the feet. For the model control group, 100 μL of normal saline was injected into Zusanli after the model was successfully established. A VonFrey electronic aesthesiometer was used to measure the pain threshold, and mechanical pain was used as an evaluation index. Observations of the basal pain threshold were started 1 day before the model was established and ended 14 days after the model was established. Pain thresholds before and after administration for different groups of animals were plotted using Graph Pad Prism 8.3.0 software. Based on the dose-response curve 48 h after administration, the EC50 and EC90 were obtained through fitting.

## CCCCCCCCCCCCCCC(=O)OC[C@H]1O[C@@H](n2cnc3c(NC4CCCC4)nc(Cl)nc32)[C@H](O)[C@@H]1O [Compound 1, ((2R,3S,4R,5R)-5-(2-Chloro-6-(cyclopentylamino)-9H-purin-9-yl)-3,4-dihydroxytetrahydrofuran-2-yl)methyl pentadecanoate]
Compared to CCPA
  EC50 change compared to CCPA: 4 fold
  EC90 change compared to CCPA: 6 fold
Compared to compound 2
  EC50 change compared to compound 2: ~3 fold
  EC90 change compared to compound 2: ~3 fold
